Assay results: patent US5399553A, “Tricyclic compound or salts thereof, method for producing the same and anti-microbial agent containing the same” (Wakunaga Seiyaku Kabushiki Kaisha, priority 1990, dated 1995)
Converted amounts (≈) assume the structure as drawn.

Key:
[1] = tested on: E. coli NIH JC-2 (IFO 12734); test: Antimicrobial activity, minimum inhibitory concentration (MIC), E. coli NIH JC-2; type: cell-based; conditions: Escherichia coli, IFO12734
Procedure: (§1) The minimum inhibitory concentration (MIC: μg/ml) of typical compounds represented by general formula (1) of the present invention is measured by the standard method of Japanese literature "Chemotherapy, Volume 29, No. 1, pp. 76-79, 1981". The results are shown in Table 1 in which compound numbers are the same as those indicated in Examples.

[2] = tested on: S. aureus 209p (IFO 12732); test: Antimicrobial activity, minimum inhibitory concentration (MIC), S. aureus 209p; type: cell-based; conditions: Staphylococcus aureus
Procedure: as §1

P. aeruginosa (IFO 3445) = test: Antimicrobial activity, minimum inhibitory concentration (MIC), P. aeruginosa; type: cell-based; conditions: Pseudomonas aeruginosa, IFO3445
Procedure: as §1

[3] = Recovery in urine after oral administration (absorption and excretion); type: in vivo, male JCL-SD rats; conditions: 20 mg/kg, rat, 20 mg/10 ml/kg in 0.5% methylcellulose, disk method, read-out: Excretion Rate In Urine
Procedure: (§2) The absorbability and excretion after oral administration of the compounds, of the present invention were tested by measuring recovery in urine and in bile as follows.
To a group of three male JCL-SD rats (6 weeks old) fasted overnight, a subject compound was prepared to 20 mg/10 ml/kg with 0.5% of methylcellulose solution and was orally administrated. The sampling was carried out by collecting urine in 0 to 6 hours and 6 to 24 hours. The concentration of the subject compound in the urine was examined by a disk method by using Bacillus subtilis ATCC 33 as a testing bacillus to obtain an excretion rate in urine for 24 hours.

[4] = Recovery in bile after oral administration (absorption and excretion); type: in vivo, rats; conditions: 20 mg/kg, rat, prepared as for urine (20 mg/10 ml/kg), disk method, read-out: Excretion Rate In Bile
Procedure: as §2
A subject compound was prepared in the same manner as the recovery in urine and was orally administrated to the rats and bile was collected by using a polyethylene tube inserted into the choledochus in 24 hours. The concentration of the subject compound in the bile sample was examined in the same manner as the recovery in urine to obtain an excretion rate in bile for 24 hours.

MIC [1] [µg/mL] | MIC [2] [µg/mL] | MIC (P. aeruginosa (IFO 3445)) [µg/mL] | dose excreted at 24 h [3] [%] | dose excreted at 24 h [4] [%] | SMILES
0.025 (≈ 0.0694 µM) | 0.1 (≈ 0.277 µM) | 0.2 (≈ 0.555 µM) | 59.7 | 3.8 | C[C@H]1CN(c2c(F)cc3c(=O)c(C(=O)O)cn4c3c2CCN4C)C[C@H]1N (single isomer, unassigned) [Compound 30, 4-(cis (-) 3-Amino-4-methylpyrrolidin-1-yl)-5-fluoro-2,3-dihydro-1-methyl-7-oxo-1H,7H-pyrido[3,2,1-ij]cinnoline-8-carboxylic acid]
0.1 (≈ 0.288 µM) | 0.78 (≈ 2.25 µM) | 0.78 (≈ 2.25 µM) |  |  | CN1CCc2c(OCC3(N)CC3)c(F)cc3c(=O)c(C(=O)O)cn1c23 [Compound 73]
